Type in all cases: biochemical, cynomolgus monkey
Assay [1] concerns aldosterone synthase (CYP11B2). Briefly: Inhibition of aldosterone synthase (cynomolgus adrenal mitochondria, aldosterone by mass spectrometry). The conditions noted are these: selectivity for aldosterone synthase inhibition over cortisol synthase (CYP11B1) inhibition, fold. The method, boiled down: (§1)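 Cynomolgus adrenal mitochondria (50 units CYP11B2 activity) incubated with 2 μM corticosterone in 100 mM potassium phosphate pH 7.4, 1% DMSO; started with 1 mM NADPH, 90 min at 37 °C. Aldosterone quantified by mass spectrometry; no-NADPH blank as 0%, no-compound as 100% activity, across compound concentrations.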

The target in assay [2] is aldosterone synthase (CYP11B2) (Macaca fascicularis, UniProt A0A2K5UPL9). Described as above. The conditions noted are these: 2 μM corticosterone substrate, 50 units CYP11B2, 90 min, 37° C.; read-out: Aldosterone Inhibition IC50. The method, boiled down:
as §1

Assay [3] has as its target cortisol synthase (CYP11B1) (Macaca fascicularis, UniProt A0A2K5ULY1). Briefly: Inhibition of cortisol synthesis (cynomolgus adrenal mitochondria, cortisol by mass spectrometry). The method in brief: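 Cynomolgus adrenal mitochondria (150 units CYP11B1 activity) incubated with 11-deoxycortisol in 100 mM potassium phosphate pH 7.4, 1% DMSO; reaction started with 1 mM NADPH, 90 min at 37° C, stopped with MeCN. Cortisol quantified by mass spectrometry; IC50 from 4-parameter logistic fit versus no-compound (100%) and no-NADPH (0%) controls.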

The mark [4] stands for this setting: 11-deoxycortisol substrate, 150 units CYP11B1; read-out: Cortisol Inhibition IC50.
Where [5] appears, read: read-out: Cortisol Inhibition IC50; 11-deoxycortisol substrate, 150 units CYP11B1.

In general, IC50 refers to the concentration at which inhibition is half-maximal.

Structures are written as SMILES. Read-outs that look alike come from different tables or passages of the source. Some results are limits rather than exact numbers.

Chain of aldosterone synthase (CYP11B2) (Macaca fascicularis, UniProt A0A2K5UPL9) (A0A2K5UPL9 1-503): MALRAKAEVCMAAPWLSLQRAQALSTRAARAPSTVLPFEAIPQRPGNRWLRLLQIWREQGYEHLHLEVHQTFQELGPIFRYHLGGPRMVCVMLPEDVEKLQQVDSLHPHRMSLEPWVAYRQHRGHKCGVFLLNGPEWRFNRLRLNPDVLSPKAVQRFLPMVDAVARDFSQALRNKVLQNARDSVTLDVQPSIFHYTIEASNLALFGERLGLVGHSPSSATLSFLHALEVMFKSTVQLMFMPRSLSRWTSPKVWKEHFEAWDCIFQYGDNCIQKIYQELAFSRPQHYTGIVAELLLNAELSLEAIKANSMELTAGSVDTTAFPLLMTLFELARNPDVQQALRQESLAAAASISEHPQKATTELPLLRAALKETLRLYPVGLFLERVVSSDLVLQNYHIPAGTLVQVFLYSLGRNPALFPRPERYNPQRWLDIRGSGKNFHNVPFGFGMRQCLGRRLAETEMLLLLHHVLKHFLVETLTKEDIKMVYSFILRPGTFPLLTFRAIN

For the molecule `CC1(C)CC(=O)c2c(ncn2C2CCc3cc(C#N)ccc3C2)C1` (stereo not drawn) [C-ADN, 6-(5,5-Dimethyl-7-oxo-4,5,6,-tetrahydro-benzoimidazol-1-yl)-5,6,7,8-tetrahydro-naphthalene-2-carbonitrile], the Selectivity in assay [1] is on record as 160. The IC50 in assay [2] was 190 nM; in assay [3] (setting [4]) it was over 30000 nM.
The like results for `CC1(C)CC(=O)c2c(ncn2Cc2ccc(F)cc2)C1` [C-ADO, 3-(4-Fluoro-benzyl)-6,6-dimethyl-3,5,6,7-tetrahydro-benzoimidazol-4-one] were, in that order, 96, 56 nM and 5400 nM.
Molecule `CC1(C)CC(=O)c2c(ncn2Cc2ccc(S(C)(=O)=O)cc2)C1` [C-ADP, 3-(4-Methanesulfonyl-benzyl)-6,6-dimethyl-3,5,6,7-tetrahydro-benzoimidazol-4-one] yielded a Selectivity in assay [1] of 17. Moreover, the IC50 worked out at 92 nM in assay [2] and 1600 nM in assay [3] (setting [4]).
On to `COc1ccc(Cn2cnc3c2C(=O)CC(C)(C)C3)cc1` [C-ADQ, 3-(4-Methoxy-benzyl)-6,6-dimethyl-3,5,6,7-tetrahydro-benzoimidazol-4-one], for which, in assay [1], the Selectivity is 22. In addition, the half-inhibitory concentration (IC50) was 96 nM in assay [2] and 2100 nM in assay [3] (setting [4]).
The like results for `CC1(C)CC(=O)c2c(ncn2Cc2ccccc2)C1` [C-ADR, 3-Benzyl-6,6-dimethyl-3,5,6,7-tetrahydro-benzoimidazol-4-one] were, in that order, 97, 97 nM and 9400 nM.
With `CN(CCO)C(=O)c1ccc(Cn2cnc3c2C(=O)CC(C)(C)C3)cc1` [C-ADS, 4-(5,5-Dimethyl-7-oxo-4,5,6,7-tetrahydro-benzoimidazol-1-ylmethyl)-N-(2-hydroxy-ethyl)-N-methyl-benzamide], the Selectivity in assay [1] is given as 150. The IC50 in assay [2] stood at 290 nM; in assay [3] (setting [4]), 43000 nM.
In assay [1], `CC1(C)CC(=O)c2c(ncn2Cc2ccc(C(=O)NCCS(C)(=O)=O)cc2)C1` [C-ADU, 4-(5,5-Dimethyl-7-oxo-4,5,6,7-tetrahydro-benzoimidazol-1-ylmethyl)-N-(2-methanesulfonyl-ethyl)-benzamide] registered a Selectivity of 30. In addition, the IC50 stood at 210 nM in assay [2] and 6200 nM in assay [3] (setting [4]).
Regarding `CC1(C)CC(=O)c2c(ncn2Cc2ccc(C(C)(C)O)cc2)C1` [C-ADV, 3-[4-(1-Hydroxy-1-methyl-ethyl)-benzyl]-6,6-dimethyl-3,5,6,7-tetrahydro-benzoimidazol-4-one], the Selectivity in assay [1] turned out to be 1.4. Also, the values for the IC50 in assay [2] and in assay [3] (setting [4]) were 25 nM and 35 nM, respectively.
The like results for `CC1(C)CCc2ncn(-c3ccc(C#N)cc3)c2C1=O` [C-ADX, 4-(6,6-Dimethyl-7-oxo-4,5,6,7-tetrahydro-benzoimidazol-1-yl)-benzonitrile] were, in that order, 153, 14 nM and 2140 nM.
The like results for `CC1CCc2ncn(-c3ccc(C#N)cc3)c2C1=O` (stereo not drawn) [C-ADY, 4-(6-Methyl-7-oxo-4,5,6,7-tetrahydro-benzoimidazol-1-yl)-benzonitrile] were, in that order, 152, 24 nM and 3640 nM.
`NC(=O)N1CCCc2cc(-n3cnc4c3C(=O)CCC4)ccc21` [C-ADZ, 6-(7-Oxo-4,5,6,7-tetrahydro-benzoimidazol-1-yl)-3,4-dihydro-2H-quinoline-1-carboxylic acid amide]: the Selectivity in assay [1] turned out to be 300. The values for the IC50 in assay [2] and in assay [3] (setting [4]) were 99 nM and over 30000 nM, respectively.
In turn, `N#Cc1ccc(-n2cnc3c2C(=O)CCC3)cc1Cl` [C-AEA, 2-Chloro-4-(7-oxo-4,5,6,7-tetrahydro-benzoimidazol-1-yl)-benzonitrile] showed a Selectivity in assay [1] of 130. Further, the values for the half-inhibitory concentration (IC50) in assay [2] and in assay [3] (setting [5]) were 8.7 nM and 1100 nM, respectively.
For `N#Cc1ccc(-n2cnc3c2C(=O)C[C@@H](C(N)=O)C3)cc1Cl` [C-AEB-A, (S)-1-(3-Chloro-4-cyano-phenyl)-7-oxo-4,5,6,7-tetrahydro-1H-benzoimidazole-5-carboxylic acid amide] the same measures were 51, 590 nM and over 30000 nM.
For `N#Cc1ccc(-n2cnc3c2C(=O)C[C@H](C(N)=O)C3)cc1Cl` [C-AEB-B, (R)-1-(3-Chloro-4-cyano-phenyl)-7-oxo-4,5,6,7-tetrahydro-1H-benzoimidazole-5-carboxylic acid amide] the same measures were 940, 32 nM and over 30000 nM.
In turn, `Cn1ncc2c1CC(n1cnc3c1C(=O)CCC3)CC2` (stereo not drawn) [C-AEF, 3-(1-Methyl-4,5,6,7-tetrahydro-1H-indazol-6-yl)-3,5,6,7-tetrahydro-benzoimidazol-4-one] came in with a Selectivity in assay [1] of 160. The IC50 in assay [2] is 190 nM; in assay [3] (setting [4]), over 30000 nM.
In assay [1], `CNC(=O)[C@H]1CC(=O)c2c(ncn2-c2ccc(C#N)c(Cl)c2)C1` [C-AEH, (R)-1-(3-Chloro-4-cyano-phenyl)-7-oxo-4,5,6,7-tetrahydro-1H-benzoimidazole-5-carboxylic acid methylamide] yielded a Selectivity of 526. Further, the 50% inhibitory concentration (IC50) was 57 nM in assay [2] and over 30000 nM in assay [3] (setting [5]).

The values are drawn from US10858342B2, “Bicyclic imidazole derivatives useful for the treatment of renal diseases, cardiovascular diseases and fibrotic diseases” (Boehringer Ingelheim International GmbH, priority 2016, dated 2020).
